Drawing on publication PMC8161687, “Cytosine-5 methylation-directed construction of a Au nanoparticle-based nanosensor for simultaneous detection of multiple DNA methyltransferases at the single-molecule level” (Chemical Science, 2020), this text covers IC50 for one compound.

The target of the test is T1, CpG methyltransferase (M.SssI MTase) (Spiroplasma monobiae, UniProt P15840).
T1 construct: gene sssIM
Kind of test: coupled GlaI / RNase HII cleavage, Cy5 release from AuNP, single-molecule TIRF counting. The class given is biochemical. The conditions noted are these: 600 nM hairpin DNA HS1; 320 μM SAM; 100 U/mL M.SssI; NEBuffer 2; 37 °C, 2 h; coupled assay; free nucleoside added, covalent mechanism only cited.

Molecules are shown by their SMILES.

T1 sequence (P15840 whole entry): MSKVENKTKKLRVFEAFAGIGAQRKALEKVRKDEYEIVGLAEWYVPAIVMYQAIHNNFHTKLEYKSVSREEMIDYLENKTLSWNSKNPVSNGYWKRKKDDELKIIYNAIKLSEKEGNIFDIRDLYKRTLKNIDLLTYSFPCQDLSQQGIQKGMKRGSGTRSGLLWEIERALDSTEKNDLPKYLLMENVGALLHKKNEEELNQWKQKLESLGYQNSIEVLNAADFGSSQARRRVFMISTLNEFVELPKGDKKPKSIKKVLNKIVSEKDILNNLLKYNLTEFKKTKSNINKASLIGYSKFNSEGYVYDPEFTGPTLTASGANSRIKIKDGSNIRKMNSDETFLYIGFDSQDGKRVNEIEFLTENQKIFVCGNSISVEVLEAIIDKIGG

As for `Nc1ncn([C@H]2C[C@H](O)[C@@H](CO)O2)c(=O)n1` [decitabine], the IC50 came to 640 nM.
